Laboratory results published in patent publication US20240116896A1 (ATAI Life Sciences AG, priority 2022, published 2024).

Legend:
Assay type in all cases: cell-based
5-HT2A [1] = target: T1, 5-HT2A (Homo sapiens, UniProt P28223); assay: Calcium mobilization (Ca++ flux) assay, agonist mode, 5-HT2A; details: for 5-HT2A, Ca++ flux % activation @30 uM: relative to MAX serotonin control
From the text: (§1) Calcium Mobilization Assay Method (Performed by DiscoveRx Eurofins)
(§2) The Calcium No-Wash^PLUS assay monitors the activation of a GPCR via Gq secondary messenger signaling in a live cell, non-imaging assay format. Calcium mobilization in PathHunter® cell lines or other cell lines stably expressing Gq-coupled GPCRs is monitored using a calcium-sensitive dye that is loaded into cells. GPCR activation by a compound results in the release of calcium from intracellular stores and an increase in dye fluorescence that is measured in real-time.
(§3) Cell lines expressing the GPCR of interest were expanded from freezer stocks according to standard procedures. Cells were seeded in a total volume of 20 μL into black-walled, clear-bottom, Poly-D-lysine coated 384-well microplates and incubated at 37° C. for the appropriate time prior to testing.
(§4) Assays were performed in 1× Dye Loading Buffer consisting of 1× Dye, 1× Additive A and 2.5 mM Probenecid in HBSS/20 mM Hepes. Probenicid was prepared fresh. Cells were loaded with dye prior to testing. Media was aspirated from cells and replaced with 20 μL Dye Loading Buffer. Cells were incubated for 30-60 minutes at 37° C.
(§5) For agonist determination, cells were incubated with sample to induce response. After dye loading, cells were removed from the incubator and 10 μL HBSS/20 mM Hepes was added. 3× vehicle was included in the buffer when performing agonist dose curves to define the EC80 for subsequent antagonist assays. Cells were incubated for 30 minutes at room temperature in the dark to equilibrate plate temperature.
(§6) Intermediate dilution of sample stocks was performed to generate 4× sample in assay buffer. Compound agonist activity was measured on a FLIPR Tetra (MDS). Calcium mobilization was monitored for 2 minutes and 10 μL 4× sample in HBSS/20 mM Hepes was added to the cells 5 seconds into the assay.
(§7) Compound activity data was analyzed using CBIS data analysis suite (ChemInnovation, CA). For agonist mode assays, percentage activity is calculated using the following formula:
(§8) % Activity=100%×(mean RFU of test sample−mean RFU of vehicle control)/(mean MAX RFU control ligand−mean RFU of vehicle control).
(§9) In these studies, the MAX RFU was generated by using 0.1 mM serotonin for the calcium mobilization assay.

5-HT2B [2] = target: T2, 5-HT2B (Homo sapiens, UniProt P41595); assay: Calcium mobilization (Ca++ flux) assay, agonist mode, 5-HT2B; details: for 5-HT2B, Ca++ flux % activation @30 uM: relative to MAX serotonin control; for EC50: agonist mode
T2 sequence (P41595 whole entry): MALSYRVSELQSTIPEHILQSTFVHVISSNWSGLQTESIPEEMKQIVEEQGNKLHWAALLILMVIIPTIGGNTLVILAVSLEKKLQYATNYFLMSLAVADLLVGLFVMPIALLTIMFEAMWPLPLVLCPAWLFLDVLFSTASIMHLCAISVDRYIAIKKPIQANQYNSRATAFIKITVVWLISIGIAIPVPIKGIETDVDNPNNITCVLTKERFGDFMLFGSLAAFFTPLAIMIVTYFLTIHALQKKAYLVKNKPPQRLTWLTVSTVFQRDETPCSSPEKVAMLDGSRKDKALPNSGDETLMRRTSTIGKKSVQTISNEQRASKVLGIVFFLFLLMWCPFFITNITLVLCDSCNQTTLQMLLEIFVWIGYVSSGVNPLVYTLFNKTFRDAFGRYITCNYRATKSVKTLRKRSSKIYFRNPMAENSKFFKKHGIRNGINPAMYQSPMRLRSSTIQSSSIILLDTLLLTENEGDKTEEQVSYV
From the text: as §1, §2, §3, §4, §5, §6, §7, §8, §9

5-HT2C = target: T3, 5-HT2C (Homo sapiens, UniProt P28335); assay: Calcium mobilization (Ca++ flux) assay, agonist mode, 5-HT2C
T3 sequence (P28335 33-458): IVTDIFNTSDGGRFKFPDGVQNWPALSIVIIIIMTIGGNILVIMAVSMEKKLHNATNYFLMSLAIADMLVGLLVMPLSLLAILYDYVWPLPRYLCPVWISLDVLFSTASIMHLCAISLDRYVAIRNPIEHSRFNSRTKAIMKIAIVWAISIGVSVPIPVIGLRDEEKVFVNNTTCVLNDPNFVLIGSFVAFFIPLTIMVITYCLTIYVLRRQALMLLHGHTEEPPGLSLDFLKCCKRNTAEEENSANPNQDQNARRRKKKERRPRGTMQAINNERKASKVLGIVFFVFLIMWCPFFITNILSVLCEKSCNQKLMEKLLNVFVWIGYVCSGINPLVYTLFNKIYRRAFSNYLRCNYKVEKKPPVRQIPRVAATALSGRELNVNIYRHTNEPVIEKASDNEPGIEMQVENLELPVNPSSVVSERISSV
From the text: as §1, §2
as §3, with “testing. […]” for “testing.”
as §6
Compound activity data was analyzed using CBIS data analysis suite (ChemInnovation, CA). For agonist mode assays, percentage activity is calculated using the following formula: […]

5-HT2B [3] = target: T2, 5-HT2B; assay: IPOne (IP1 HTRF) assay, CHO-K1 cells expressing human 5-HT2B; set-up: expressed in transfected cells; host or cells: CHO-K1; details: CHO-K1, percentage of reference agonist α-Me-5-HT at its EC100
Procedure: (§10) IPOne assays were performed using stably-transfected cell lines (CHO-K1) expressing human 5-HT2A or 5-HT2B receptors. Upon activation of these receptors, Gq-mediated myo-Inositol 1 phosphate (IP1) production is detected by a Homogeneous Time-Resolved Fluorescence (HTRF) competitive immunoassay, whereby an IP1 analog coupled to a fluorophore (acceptor) competes with endogenous IP1 for binding to a labeled anti-IP1 antibody (donor). The resulting signal is inversely proportional to the concentration of IP1 in the sample. Cells were incubated with an IP1 inhibitor (to prevent degradation and allow detection) and either reference compound or test compound. α-Me-5-HT was used as the assay reference agonist. Activation of 5-HT2A or 5-HT2B receptors was measured via accumulation of IP1 detected by HTRF. Agonist activity of test compounds was expressed as a percentage of the activity of the reference agonist at its EC100 concentration.

5-HT2A [4] = target: T1, 5-HT2A; assay: IPOne (IP1 HTRF) assay, CHO-K1 cells expressing human 5-HT2A; set-up: expressed in transfected cells; host or cells: CHO-K1; details: CHO-K1, percentage of reference agonist α-Me-5-HT at its EC100
Procedure: as §10

5-HT2A [5] = target: T1, 5-HT2A; assay: PathHunter b-arrestin assay, agonist mode, 5-HT2A
From the text: GPCR Arrestin Assay Methods
Arrestin Pathway (Performed by DiscoverX Eurofins)
The PathHunter® β-Arrestin assay monitors the activation of a GPCR in a homogenous, non-imaging assay format using a technology developed by DiscoverX called Enzyme Fragment Complementation (EFC) with β-galactosidase (β-Gal) as the functional reporter. […] EA is fused to β-Arrestin and PK is fused to the GPCR of interest.
When the GPCR is activated and β-Arrestin is recruited to the receptor, ED and EA complementation occurs, restoring β-Gal activity which is measured using chemiluminescent PathHunter® Detection Reagents.
PathHunter cell lines (DiscoveRx Eurofins) were expanded from freezer stocks according to standard procedures. Cells were seeded in a total volume of 20 μL into white walled, 384-well microplates and incubated at 37° C. for the appropriate time prior to testing. […]
b-Arrestin assay signal was generated through a single addition of 12.5 or 15 μL (50% v/v) of PathHunter Detection reagent cocktail, followed by a one-hour incubation at room temperature. Microplates were read following signal generation with a PerkinElmer Envision™ instrument for chemiluminescent signal detection.
Compound activity was analyzed using CBIS data analysis suite (ChemInnovation, CA). For agonist mode assays, percentage activity was calculated using the following formula: […]

T1 sequence (P28223 whole entry): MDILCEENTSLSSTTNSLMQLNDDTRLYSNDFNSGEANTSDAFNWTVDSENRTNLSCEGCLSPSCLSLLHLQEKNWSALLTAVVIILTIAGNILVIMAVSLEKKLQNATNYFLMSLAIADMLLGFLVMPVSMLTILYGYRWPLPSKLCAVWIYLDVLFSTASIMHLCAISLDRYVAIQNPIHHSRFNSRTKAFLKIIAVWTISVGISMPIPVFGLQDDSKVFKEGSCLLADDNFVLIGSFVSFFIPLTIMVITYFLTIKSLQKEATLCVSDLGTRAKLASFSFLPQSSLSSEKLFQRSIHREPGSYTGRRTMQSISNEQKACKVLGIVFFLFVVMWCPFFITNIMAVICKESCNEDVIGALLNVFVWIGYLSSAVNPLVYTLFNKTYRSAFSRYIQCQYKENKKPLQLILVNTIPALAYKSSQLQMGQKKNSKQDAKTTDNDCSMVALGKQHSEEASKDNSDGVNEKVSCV

Compound	EC50 (5-HT2A [1]) [nM]	5-HT2A, Ca++ flux % activation @30 uM (5-HT2A [1]) [%]	5-HT2B, Ca++ flux % activation @30 uM (5-HT2B [2]) [%]	EC50 (5-HT2B [2]) [nM]	EC50 (5-HT2C) [nM]	activation at 0.3 µM (5-HT2B [3]) [%]	activation at 30 µM (5-HT2B [3]) [%]	activation at 0.3 µM (5-HT2A [4]) [%]	activation at 30 µM (5-HT2A [4]) [%]	EC50 (5-HT2A [5]) [nM]
CN(CCO)CCc1c[nH]c2ccccc12 [Compound 6, 2-((2-(1H-indol-3-yl)ethyl)(methyl)amino)ethan-1-ol]	101	42.83	–	–	–	–	–	–	–	–
CN(CCc1c[nH]c2ccccc12)CC(=O)O [Compound 5, N-(2-(1H-indol-3-yl)ethyl)-N-methylglycine]	> 30000	24.51	–	–	–	–	–	–	–	–
O=C(O)C1CCCN1CCc1c[nH]c2ccccc12 (centres unmarked) [Compound 2, (2-(1H-indol-3-yl)ethyl)proline]	> 30000	2.41	–	–	–	–	–	–	–	–
OCC1CCCN1CCc1c[nH]c2ccccc12 (centres unmarked) [Compound 3, (1-(2-(1H-indol-3-yl)ethyl)pyrrolidin-2-yl)methanol]	103	94.73	23.51	> 30000	498	25.9	93.9	47.9	97.5	1150
COC(=O)C1CCCN1CCc1c[nH]c2ccccc12 (centres unmarked) [Compound 1, methyl (2-(1H-indol-3-yl)ethyl)prolinate]	987	78.24	11.15	> 30000	4160	–	–	–	–	16100
COC(=O)CN(C)CCc1c[nH]c2ccccc12 [Compound 4, methyl N-(2-(1H-indol-3-yl)ethyl)-N-methylglycinate]	302	36.92	–	–	–	–	–	–	–	–
OC[C@H]1CCCN1CCc1c[nH]c2ccccc12 [Compound 32, (R)-(1-(2-(1H-indol-3-yl)ethyl)pyrrolidin-2-yl)methanol]	–	–	–	–	–	4.28	33.9	7.16	42.1	–
CC[C@@H](O)[C@@H]1CCCN1CCc1c[nH]c2ccccc12 [Compound 77, (R)-1-((S)-1-(2-(1H-indol-3-yl)ethyl)pyrrolidin-2-yl)propan-1-ol]	–	–	–	–	–	18.2	86.7	23.9	90.6	–
